Experimental data published in patent publication US6375672B1, “Method for controlling the chemical and heat induced responses of collagenous materials” (Board of Trustees of Michigan State University, priority 1999, dated 2002).

Test system: rabbit patellar tendon specimen
Assay: post-denaturation tension test (stiffness) of heat-contracted tendon specimens treated with cross-linking agent
Design: species or system New Zealand rabbit
Conditions: FIG. 7; for stiffness increase when compared to a control without the cross-linking: then 0.1% glutaraldehyde for 15 minutes
Experimental: The achieve the above objectives, the present invention provides an in vitro testing system for developing procedures for treating joint instability problems and loose skin problems. In particular, the testing system performs a tensile test, which is a test wherein a constant rate of elongation is applied on the specimen and the resultant load is measured by a load cell; a viscoelasticity test, which is a test to determine the viscoelastic properties of the specimen; and, calculates stiffness which is the slope of elongation versus load graph. The testing system 110 is illustrated in FIG. 4 and consists of a hydrothermy cabin 120 that is attached to a universal testing machine 130, which is used to perform isothermal and isotonic heating of specimens. The hydrothermy cabin 120 provides a chamber which allows fluid to be circulated around all surfaces of specimen 123 held in between lower grip 124 and upper grip 125. Specimen 123 is secured to lower grip 124 using a fixture which is designed to keep specimen 123 at an angle to mimic anatomical loading while compensating for the offset created by the angle so as to ensure a straight line of loading. Specimen 123 is secured to upper grip 125 by a wedge-shaped fixture which is composed of two universal joints to give rotational freedom to specimen 123 to ensure that a purely uniaxial stress is created on specimen 123. The denaturation of the collagen in specimen 123 is produced by providing to hydrothermy cabin 120 high temperature saline solution 150 contained in reservoir 151 by means of high temperature saline solution supply line 152. […] The materials testing machine 130 performs a tensile test wherein a constant rate of eleongation is applied to specimen 123 and the resultant load is measured by a load cell (not shown); a viscoelasticity test wherein a constant load is applied on specimen 123 and the resultant elongation as a function of time is measured (creep test) or a constant elongation is imposed and the resulting load is measured (stress relaxation test) as a function of time. […]

**Q.** Which results are given for O=CCCCC=O [glutaraldehyde]?
**A.** stiffness of the specimen (15 minutes of 0.1% glutaraldehyde following heat treatment of either 75° C. or 80° C.): increased; stiffness increase when compared to a control without the cross-linking (heat treatment 75° C., 0.5 MPa load): more than 220%; stiffness increase when compared to a control without the cross-linking (heat treatment 80° C., 0.6 MPa load): more than 130%
